Source: PubChem BioAssay (NCI)
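Five concentrations, 48 hours, 96-well plates. GI50 is the concentration that inhibits growth by half. TGI denotes the concentration required for complete inhibition of growth.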

What was measured:
Assay in all cases: NCI tumour cell line growth inhibition, 48 h; in the data active = GI50 below about 0.43 µM; inactive = the rest
[1] = tested on: SK-MEL-2 melanoma
[2] = tested on: BT-549 breast
[3] = tested on: IGROV1 ovarian
[4] = tested on: DU-145 prostate
[5] = tested on: SF-268 CNS
[6] = tested on: K-562 leukemia
[7] = tested on: OVCAR-4 ovarian
[8] = tested on: HCT-15 colon
[9] = tested on: MALME-3M melanoma
[10] = tested on: A498 renal
[11] = tested on: EKVX NSCLC
[12] = tested on: SK-OV-3 ovarian
[13] = tested on: T-47D breast
[14] = tested on: SNB-19 CNS
[15] = tested on: NCI-H522 lung
[16] = tested on: MOLT-4 leukemia
[17] = tested on: SW-620 colon
[18] = tested on: NCI-H23 lung
[19] = tested on: HL-60(TB) leukemia
[20] = tested on: U251 CNS
[21] = tested on: SF-539 CNS
[22] = tested on: SNB-75 CNS
[23] = tested on: KM12 colon
[24] = tested on: UACC-62 melanoma
[25] = tested on: HS 578T breast
[26] = tested on: SK-MEL-5 melanoma
[27] = tested on: SN12C renal
[28] = tested on: NCI-H460 lung
[29] = tested on: HT29 colon
[30] = tested on: RPMI-8226 leukemia
[31] = tested on: 786-0 renal
[32] = tested on: ACHN renal
[33] = tested on: MDA-MB-435
[34] = tested on: A549 NSCLC
[35] = tested on: HCT-116 colon
[36] = tested on: CAKI-1 renal
[37] = tested on: PC-3 prostate
[38] = tested on: TK-10 renal
[39] = tested on: MDA-MB-231 breast
[40] = tested on: OVCAR-8 ovarian
[41] = tested on: SF-295 CNS
[42] = tested on: UACC-257 melanoma
[43] = tested on: UO-31 renal
[44] = tested on: M14 melanoma
[45] = tested on: COLO 205 colon
[46] = tested on: OVCAR-5 ovarian
[47] = tested on: LOX IMVI melanoma
[48] = tested on: CCRF-CEM leukemia
[49] = tested on: HOP-62 NSCLC
[50] = tested on: NCI/ADR-RES ovarian
[51] = tested on: OVCAR-3 ovarian
[52] = tested on: HOP-92 NSCLC
[53] = tested on: RXF 393 renal
[54] = tested on: NCI-H226 lung
[55] = tested on: MCF7 breast
[56] = tested on: SK-MEL-28 melanoma

Cc1[nH]n(-c2cccc(Cl)c2)c(=O)c1/C=C1\C=c2ccccc2=CC1=O
> 100 µM: TGI [2] | TGI [3] | TGI [4] | TGI [5] | TGI [6] | TGI [7] | TGI [8] | TGI [9] | TGI [10] | TGI [11] | TGI [12] | TGI [13] | TGI [14] | TGI [15] | TGI [16] | TGI [17] | TGI [18] | TGI [19] | TGI [20] | TGI [21] | TGI [23] | TGI [24] | TGI [25] | TGI [26] | TGI [27] | TGI [28] | TGI [29] | TGI [30] | TGI [32] | TGI [33] | TGI [34] | TGI [35] | TGI [36] | TGI [37] | TGI [38] | TGI [39] | TGI [40] | TGI [41] | TGI [42] | TGI [43] | TGI [44] | TGI [45] | TGI [46] | TGI [47] | TGI [48] | TGI [49] | TGI [50] | TGI [51]
inactive: GI50 [1] 21.8 µM | GI50 [2] 27.3 µM | GI50 [3] 27.1 µM | GI50 [4] 70 µM | GI50 [5] 97.1 µM | GI50 [6] 44.7 µM | GI50 [7] > 100 µM | GI50 [8] > 100 µM | GI50 [9] 29.2 µM | GI50 [10] > 100 µM | GI50 [11] > 100 µM | GI50 [12] 26.5 µM | GI50 [13] > 100 µM | GI50 [14] 45.7 µM | GI50 [15] > 100 µM | GI50 [16] > 100 µM | GI50 [17] > 100 µM | GI50 [18] 48 µM | GI50 [19] > 100 µM | GI50 [20] 40.7 µM | GI50 [22] 0.927 µM | GI50 [23] > 100 µM | GI50 [24] 39.8 µM | GI50 [25] 32.6 µM | GI50 [26] > 100 µM | GI50 [27] > 100 µM | GI50 [28] > 100 µM | GI50 [29] > 100 µM | GI50 [30] > 100 µM | GI50 [31] 21.5 µM | GI50 [32] 17 µM | GI50 [33] > 100 µM | GI50 [34] > 100 µM | GI50 [35] > 100 µM | GI50 [36] > 100 µM | GI50 [37] > 100 µM | GI50 [38] 35 µM | GI50 [39] 36.1 µM | GI50 [40] > 100 µM | GI50 [41] 23.2 µM | GI50 [42] > 100 µM | GI50 [43] > 100 µM | GI50 [44] > 100 µM | GI50 [45] > 100 µM | GI50 [46] > 100 µM | GI50 [47] > 100 µM | GI50 [48] 97.5 µM | GI50 [49] 31.4 µM | GI50 [50] > 100 µM | GI50 [51] 59.5 µM
32.7 µM: TGI [22]
70.2 µM: TGI [1]
86.6 µM: TGI [31]

Fc1ccc(-c2nn3c(COc4ccc(Cl)cc4Cl)nnc3s2)cc1Oc1ccccc1
23.7 µM: TGI [46] | TGI [49]
27.8 µM: TGI [16]
25.4 µM: TGI [36]
25.9 µM: TGI [35]
25.2 µM: TGI [38]
39 µM: TGI [48]
> 100 µM: TGI [6] | TGI [7] | TGI [8] | TGI [15] | TGI [17] | TGI [28] | TGI [40] | TGI [42] | TGI [55] | TGI [43] | TGI [45]
43.8 µM: TGI [2]
50.8 µM: TGI [33]
39.1 µM: TGI [30]
13.3 µM: TGI [51]
7.93 µM: TGI [52]
40.6 µM: TGI [10]
87.8 µM: TGI [5]
25.7 µM: TGI [13]
26.4 µM: TGI [18]
42.9 µM: TGI [56]
74 µM: TGI [54]
32.3 µM: TGI [21]
25.6 µM: TGI [20]
67.2 µM: TGI [44]
21.4 µM: TGI [37]
91.2 µM: TGI [23]
45.9 µM: TGI [53]
29 µM: TGI [47]
91.1 µM: TGI [22]
26.9 µM: TGI [31]
47.5 µM: TGI [25]
42.5 µM: TGI [4]
62.2 µM: TGI [34]
20 µM: TGI [41]
92.6 µM: TGI [3]
active: GI50 [52] 0.254 µM
26.1 µM: TGI [14]
67.3 µM: TGI [11]
35.2 µM: TGI [9]
71.2 µM: TGI [26]
28.9 µM: TGI [24]
23.8 µM: TGI [39]
27.3 µM: TGI [32]
29.6 µM: TGI [27]
inactive: GI50 [2] 19.3 µM | GI50 [3] 26.2 µM | GI50 [4] 19.2 µM | GI50 [5] 29.8 µM | GI50 [6] 21.2 µM | GI50 [7] 24.6 µM | GI50 [8] 43.2 µM | GI50 [9] 17 µM | GI50 [10] 20.2 µM | GI50 [11] 23.7 µM | GI50 [13] 11.6 µM | GI50 [14] 13.3 µM | GI50 [15] 27 µM | GI50 [16] 7.08 µM | GI50 [17] 36.9 µM | GI50 [18] 13.6 µM | GI50 [20] 12.9 µM | GI50 [21] 18 µM | GI50 [22] 32.2 µM | GI50 [23] 28.9 µM | GI50 [24] 14.3 µM | GI50 [25] 16.4 µM | GI50 [26] 23 µM | GI50 [27] 12.9 µM | GI50 [28] 25.4 µM | GI50 [29] 15.9 µM | GI50 [30] 18.3 µM | GI50 [31] 14 µM | GI50 [32] 14.1 µM | GI50 [33] 16.8 µM | GI50 [34] 20.7 µM | GI50 [35] 13.2 µM | GI50 [36] 12.8 µM | GI50 [37] 8.94 µM | GI50 [53] 18.7 µM | GI50 [38] 12.2 µM | GI50 [39] 11.6 µM | GI50 [40] 27.8 µM | GI50 [41] 6.2 µM | GI50 [54] 21 µM | GI50 [42] 55.4 µM | GI50 [55] 67.1 µM | GI50 [43] 30 µM | GI50 [44] 23 µM | GI50 [45] 19.6 µM | GI50 [46] 11.1 µM | GI50 [47] 14.6 µM | GI50 [48] 16.8 µM | GI50 [49] 11.5 µM | GI50 [56] 15.8 µM | GI50 [51] 0.705 µM
34.8 µM: TGI [29]
